How the values were obtained:
[1] = system: A549; experiment: Inhibitory concentration against growth of A549 lung carcinoma cell; assay type: functional, cell-based; settings: Homo sapiens
[2] = system: HeLa; experiment: Inhibitory concentration against HeLa cell colony formation; Range is 15-20 uM; assay type: functional, cell-based; settings: Homo sapiens
[3] = target: Mitogen-activated protein kinase 1 (Homo sapiens, UniProt P28482); experiment: Dissociation constant for ERK2 kinase
Chain of Mitogen-activated protein kinase 1 (P28482 whole entry): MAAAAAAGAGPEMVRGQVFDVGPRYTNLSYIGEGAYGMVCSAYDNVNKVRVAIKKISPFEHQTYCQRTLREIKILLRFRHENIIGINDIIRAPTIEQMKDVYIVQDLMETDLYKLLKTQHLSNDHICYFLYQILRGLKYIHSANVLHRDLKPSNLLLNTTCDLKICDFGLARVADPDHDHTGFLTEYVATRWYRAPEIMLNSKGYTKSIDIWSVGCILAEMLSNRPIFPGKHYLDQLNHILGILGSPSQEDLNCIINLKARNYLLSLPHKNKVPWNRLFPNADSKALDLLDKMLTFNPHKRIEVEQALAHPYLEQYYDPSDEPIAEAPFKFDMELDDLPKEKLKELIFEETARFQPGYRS

Row | IC50 [1] | IC50 [2] | Kd [3] | SMILES
1 | 15 µM | 20 µM |  | O=C(CCN1CCN(C/C=C/c2ccccc2)CC1)Nc1ccc(Cl)cc1
2 | 25 µM | 20 µM | 5 µM | CCOc1ccc(/C=C2\SC(=O)N(CCN)C2=O)cc1
3 |  |  | 5 µM | O=C(CSc1nc2ccccc2o1)Nc1ccc(-n2cnnn2)cc1

— ChEMBL document CHEMBL1145156, “Identification of novel extracellular signal-regulated kinase docking domain inhibitors” (J Med Chem, 2005)
